Experimental data: patent publication US10760052B2, “Method of inhibiting tau phosphorylation” (priority 2012, dated 2020)
Where two headings read alike, the source gives them in different places.

Biological target: T1, mu opiate receptor (MOR) (Rattus norvegicus, UniProt P33535)
T1 construct: from tissue; host or cells: striatum (membrane preparation)
Assay type: biochemical
Conditions: for [35S]GTPγS binding, FLNA-Binding Compound as Agonist at 0.1 μM: 0.1 μM compound; for [35S]GTPγS binding, FLNA-Binding Compound as Agonist at 0.1 μM / [35S]GTPγS binding, FLNA-Binding Compound as Agonist at 1 μM: striatal membranes; for [35S]GTPγS binding, FLNA-Binding Compound as Agonist at 0.1 μM / [35S]GTPγS binding, FLNA-Binding Compound as Agonist at 1 μM + BFNA / [35S]GTPγS binding, FLNA-Binding Compound as Agonist at 1 μM: Series C-2; for [35S]GTPγS binding, FLNA-Binding Compound as Agonist at 1 μM + BFNA: 1 μM compound + 1 μM β-FNA (selective MOR antagonist); for [35S]GTPγS binding, FLNA-Binding Compound as Agonist at 1 μM: 1 μM compound

[1] = [35S]GTPγS binding to Gαo in striatal membranes, compound 0.1 μM
[2] = [35S]GTPγS binding to Gαo in striatal membranes, compound 1 μM
[3] = [35S]GTPγS binding to Gαo in striatal membranes, compound 1 μM plus 1 μM β-funaltrexamine (MOR antagonist)

T1 sequence (P33535 whole entry): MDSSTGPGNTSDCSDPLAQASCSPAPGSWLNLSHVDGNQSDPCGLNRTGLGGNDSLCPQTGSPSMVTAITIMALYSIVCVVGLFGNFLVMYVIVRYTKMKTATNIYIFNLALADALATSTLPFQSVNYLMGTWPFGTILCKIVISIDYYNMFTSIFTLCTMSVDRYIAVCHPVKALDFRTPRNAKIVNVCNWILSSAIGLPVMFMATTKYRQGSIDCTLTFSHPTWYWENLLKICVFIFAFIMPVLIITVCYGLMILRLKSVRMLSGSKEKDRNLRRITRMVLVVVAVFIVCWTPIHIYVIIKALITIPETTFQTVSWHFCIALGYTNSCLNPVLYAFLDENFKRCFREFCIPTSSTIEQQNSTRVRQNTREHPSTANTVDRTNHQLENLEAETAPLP

SMILES	% DAMGO (0.1 μM) [%]	% DAMGO (1 μM) [%]	% DAMGO + BFNA [%]	[35S]GTPγS binding, FLNA-Binding Compound as Agonist at 0.1 μM [%]	[35S]GTPγS binding, FLNA-Binding Compound as Agonist at 1 μM + BFNA [%]	[35S]GTPγS binding, FLNA-Binding Compound as Agonist at 1 μM [%]	Concentration of FLNA-Binding Compound as Agonist 0.1 μM [1] [%]	Concentration of FLNA-Binding Compound as Agonist 1 μM [2] [%]	Concentration of FLNA-Binding Compound as Agonist 1 μM + BFNA [3] [%]	Concentration of FLNA-Binding Compound as Agonist 0.1 μM [%]	Concentration of FLNA-Binding Compound as Agonist 1 μM [%]	Concentration of FLNA-Binding Compound as Agonist 1 μM + BFNA [%]
O=[N+]([O-])c1ccc(S(=O)(=O)N2CCC3(CC2)NCCO3)cc1 [Compound C0040]	93.1	133.2	277.3	145.8	90.4	308.3						
COc1ccc(NC(=O)N2CCC3(CC2)OCCN3S(=O)(=O)c2ccc(OC)cc2)cc1 [Compound C0041]	110.1	111.7	575.3				186.1	244.4	95.5			
O=C(OCc1ccccc1)c1ccc(S(=O)(=O)N2CCC3(CC2)OCCN3S(=O)(=O)c2ccc(C(=O)OCc3ccccc3)cc2)cc1 [Compound C0042]	98.9	119.2	666.3				167.1	260.9	110.6			
COc1ccc(S(=O)(=O)N2CCOC23CCN(C(=O)OC(C)(C)C)CC3)cc1 [Compound C0043]	103.8	110.9	501.8	175.4	83.3	242.6						
O=[N+]([O-])c1ccc(S(=O)(=O)N2CCC3(CC2)NCCS3)cc1 [Compound C0044]	102.8	128.0	356.0	173.7	59.1	280.1						
O=[N+]([O-])c1ccc(S(=O)(=O)N2CCC3(CC2)NCCCO3)cc1 [Compound C0045]	88.3	109.1	634.3	149.2	105.3	238.8						
CC(=O)c1ccc(S(=O)(=O)N2CCOC23CCNCC3)cc1 [Compound C0046]	197.4	211.5	356.4	286.2	156.8	492.9						
COc1ccc(S(=O)(=O)N2CCOC23CCN(S(=O)(=O)c2ccc(C(C)=O)cc2)CC3)cc1 [Compound C0047]	98.1	88.5	182.0				142.2	206.1	80.1			
COc1ccc(S(=O)(=O)N2CCC3(CC2)OCCN3S(=O)(=O)c2ccc(C(C)=O)cc2)cc1 [Compound C0048]	144.2	105.3	204.3							209.1	245.3	89.9
COc1ccc(S(=O)(=O)N2CCC3(CC2)OCCN3S(=O)(=O)c2ccc(OC)c(OC)c2)cc1OC [Compound C0049]	73.5	90.1	184.1				106.6	210.0	81.0			
CC(=O)N1CCSC12CCN(S(=O)(=O)c1ccc([N+](=O)[O-])cc1)CC2 [Compound C0050]	76.1	54.8	134.1	110.3	59.0	127.6						
CC(O)c1ccc(S(=O)(=O)N2CCC3(CC2)OCCN3S(=O)(=O)c2ccc(C(C)O)cc2)cc1 (stereo not drawn) [Compound C0051]	65.1	73.1	127.0				94.4	170.4	55.9			
CC(=O)c1ccc(C(=O)N2CCC3(CC2)OCCN3S(=O)(=O)c2ccc(C(C)=O)cc2)cc1 [Compound C0052]	74.8	69.9	97.0				108.4	162.8	42.7			
CC(=O)c1ccc(C(=O)N2CCOC23CCN(S(=O)(=O)c2ccc(C(C)=O)cc2)CC3)cc1 [Compound C0053]	71.7	67.5	211.6				104.0	157.2	93.1			
CC(=O)c1ccc(C(=O)N2CCC3(CC2)OCCN3C(=O)c2ccc(C(C)=O)cc2)cc1 [Compound C0054]	47.0	54.5	98.9				68.2	127.0	43.5			
CC(=O)c1ccc(S(=O)(=O)N2CCC3(CC2)OCCN3S(C)(=O)=O)cc1 [Compound C0056]	68.0	83.0	196.1	98.6	86.3	193.4						
CC(=O)c1ccc(S(=O)(=O)N2CCC3(CC2)NCCS3)cc1 [Compound C0060]	114.8	93.9	327.0	166.5	143.9	218.9						
COc1cc(S(=O)(=O)N2CCC3(CC2)OCCN3S(=O)(=O)c2cc(OC)c(OC)c(OC)c2)cc(OC)c1OC [Compound C0062]	81.9	134.7	149.9				127.8	310.5	59.8			
CC(=O)c1ccc(S(=O)(=O)N2CCC3(CC2)NC(=O)CN3S(=O)(=O)c2ccc(C(C)=O)cc2)cc1 [Compound C0064]	124.2	159.1	110.4				213.8	349.6	38.1			
CC(=O)c1ccc(S(=O)(=O)N2CCC3(CC2)OC(CN(C)C)CN3S(=O)(=O)c2ccc(C(C)=O)cc2)cc1 (stereo not drawn) [Compound C0065]	127.0	121.3	119.5				198.3	279.5	47.7			
